{"source": "paper PMC11233931", "about": "“Remodeling tumor‐associated macrophage for anti‐cancer effects by rational design of irreversible inhibition of mitogen‐activated protein kinase‐activated protein kinase 2” (MedComm, 2024)", "test_in_all_cases": "Eurofins kinase selectivity profile against 380 other human recombinant kinases (Table S2)", "assay_type_in_all_cases": "biochemical", "key": {"[1]": {"target": "T1, 380 human recombinant protein kinases (Homo sapiens, UniProt P16591)", "T1 construct": "purchased Eurofins (Celle Lévescault)", "T1 sequence (P16591 whole entry)": "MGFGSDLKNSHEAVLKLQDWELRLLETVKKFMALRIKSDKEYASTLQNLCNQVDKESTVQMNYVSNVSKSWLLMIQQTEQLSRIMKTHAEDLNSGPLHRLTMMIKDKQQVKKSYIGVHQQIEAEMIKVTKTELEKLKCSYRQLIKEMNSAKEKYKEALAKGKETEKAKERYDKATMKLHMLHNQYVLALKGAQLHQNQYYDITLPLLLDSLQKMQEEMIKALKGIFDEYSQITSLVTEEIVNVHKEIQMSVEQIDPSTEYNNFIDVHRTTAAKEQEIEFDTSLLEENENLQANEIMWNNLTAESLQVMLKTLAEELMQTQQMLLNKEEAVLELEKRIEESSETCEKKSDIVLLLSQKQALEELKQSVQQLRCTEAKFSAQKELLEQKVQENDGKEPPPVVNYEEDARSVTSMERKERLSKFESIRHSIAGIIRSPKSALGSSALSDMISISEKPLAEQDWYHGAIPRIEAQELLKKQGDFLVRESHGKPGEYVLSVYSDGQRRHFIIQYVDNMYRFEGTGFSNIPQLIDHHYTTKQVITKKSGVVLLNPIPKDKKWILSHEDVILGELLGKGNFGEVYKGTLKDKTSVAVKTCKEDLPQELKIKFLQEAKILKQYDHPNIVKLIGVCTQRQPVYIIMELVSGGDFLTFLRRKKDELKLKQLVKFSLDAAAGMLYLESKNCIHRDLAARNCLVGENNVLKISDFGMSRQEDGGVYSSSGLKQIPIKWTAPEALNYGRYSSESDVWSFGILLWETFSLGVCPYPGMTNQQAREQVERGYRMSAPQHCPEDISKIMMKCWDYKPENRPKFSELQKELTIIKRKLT", "settings": "Fer(h), read-out: Inhibition rate", "outline": "(§1)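 Outsourced panel: 380 human recombinant kinases; inhibitor tested at various concentrations; purpose: MK2 selectivity check.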"}, "[2]": {"target": "T2, 380 human recombinant protein kinases (Homo sapiens, UniProt P12931)", "T2 construct": "purchased Eurofins (Celle Lévescault)", "T2 sequence (P12931 whole entry)": "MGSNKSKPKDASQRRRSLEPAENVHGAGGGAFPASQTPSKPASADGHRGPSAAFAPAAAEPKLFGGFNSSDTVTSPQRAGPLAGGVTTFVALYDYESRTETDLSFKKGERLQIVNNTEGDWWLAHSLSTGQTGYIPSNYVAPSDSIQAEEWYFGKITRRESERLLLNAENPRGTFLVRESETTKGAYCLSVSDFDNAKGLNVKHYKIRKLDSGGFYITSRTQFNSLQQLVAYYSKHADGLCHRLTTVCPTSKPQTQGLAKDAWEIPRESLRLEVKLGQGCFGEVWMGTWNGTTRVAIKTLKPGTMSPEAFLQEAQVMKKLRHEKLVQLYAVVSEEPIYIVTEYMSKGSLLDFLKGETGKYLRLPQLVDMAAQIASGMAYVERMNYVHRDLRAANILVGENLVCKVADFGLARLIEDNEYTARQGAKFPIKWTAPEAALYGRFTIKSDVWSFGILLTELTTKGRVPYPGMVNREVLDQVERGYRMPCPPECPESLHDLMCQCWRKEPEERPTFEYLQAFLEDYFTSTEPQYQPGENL", "settings": "for inhibition at 0.01 µM: 10 nM; for inhibition at 0.1 µM: 100 nM; for inhibition at 1 µM: 1000 nM", "outline": "as §1"}, "[3]": {"target": "T3, 380 human recombinant protein kinases (Homo sapiens, UniProt P51955)", "T3 construct": "purchased Eurofins (Celle Lévescault)", "T3 sequence (P51955 1-445)": "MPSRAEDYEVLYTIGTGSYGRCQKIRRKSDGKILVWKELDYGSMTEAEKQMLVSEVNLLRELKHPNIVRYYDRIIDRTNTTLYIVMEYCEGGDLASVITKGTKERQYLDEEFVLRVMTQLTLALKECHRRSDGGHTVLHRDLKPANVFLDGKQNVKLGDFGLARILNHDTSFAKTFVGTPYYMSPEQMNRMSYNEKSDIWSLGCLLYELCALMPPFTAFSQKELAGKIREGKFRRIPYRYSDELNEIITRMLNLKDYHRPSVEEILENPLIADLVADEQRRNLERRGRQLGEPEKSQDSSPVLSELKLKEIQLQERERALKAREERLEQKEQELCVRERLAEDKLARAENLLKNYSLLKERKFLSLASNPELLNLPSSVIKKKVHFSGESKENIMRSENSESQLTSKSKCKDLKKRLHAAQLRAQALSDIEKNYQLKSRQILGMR", "settings": "NEK2(h), read-out: Inhibition rate", "outline": "as §1"}, "[4]": {"target": "T4, 380 human recombinant protein kinases (Homo sapiens, UniProt P53671)", "T4 construct": "purchased Eurofins (Celle Lévescault)", "T4 sequence (P53671 whole entry)": "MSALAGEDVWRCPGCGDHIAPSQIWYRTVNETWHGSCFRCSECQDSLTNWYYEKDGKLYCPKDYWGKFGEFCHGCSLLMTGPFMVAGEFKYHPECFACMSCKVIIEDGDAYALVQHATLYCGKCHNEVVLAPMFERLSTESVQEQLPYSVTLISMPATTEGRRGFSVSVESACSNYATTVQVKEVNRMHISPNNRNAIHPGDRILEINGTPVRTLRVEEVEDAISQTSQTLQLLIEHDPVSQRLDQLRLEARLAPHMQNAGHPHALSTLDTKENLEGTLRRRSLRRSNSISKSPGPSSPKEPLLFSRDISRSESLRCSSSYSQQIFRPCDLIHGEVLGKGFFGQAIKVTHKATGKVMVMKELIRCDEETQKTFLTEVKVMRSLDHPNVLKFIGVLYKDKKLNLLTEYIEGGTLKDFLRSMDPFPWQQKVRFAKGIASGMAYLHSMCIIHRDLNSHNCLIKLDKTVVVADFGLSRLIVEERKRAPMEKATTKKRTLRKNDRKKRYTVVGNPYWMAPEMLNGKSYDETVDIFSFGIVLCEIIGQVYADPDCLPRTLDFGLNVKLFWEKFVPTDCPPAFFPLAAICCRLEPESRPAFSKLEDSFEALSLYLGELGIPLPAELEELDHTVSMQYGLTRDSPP", "settings": "LIMK2(h), read-out: Inhibition rate", "outline": "as §1"}, "[5]": {"target": "T5, 380 human recombinant protein kinases (Homo sapiens, UniProt Q96GD4)", "T5 construct": "purchased Eurofins (Celle Lévescault)", "T5 sequence (Q96GD4 whole entry)": "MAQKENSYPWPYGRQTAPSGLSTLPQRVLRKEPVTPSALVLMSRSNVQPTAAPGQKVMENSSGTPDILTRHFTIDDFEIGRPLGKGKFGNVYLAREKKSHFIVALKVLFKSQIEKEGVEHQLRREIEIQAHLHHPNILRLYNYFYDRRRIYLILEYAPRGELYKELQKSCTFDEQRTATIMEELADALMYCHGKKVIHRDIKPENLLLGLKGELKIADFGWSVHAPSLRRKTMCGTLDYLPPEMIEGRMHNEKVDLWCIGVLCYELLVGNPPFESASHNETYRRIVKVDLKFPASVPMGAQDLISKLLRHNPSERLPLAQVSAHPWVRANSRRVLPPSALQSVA", "settings": "Aurora-B(h), read-out: Inhibition rate", "outline": "as §1"}, "[6]": {"target": "T6, 380 human recombinant protein kinases (Homo sapiens, UniProt Q8N568)", "T6 construct": "purchased Eurofins (Celle Lévescault)", "T6 sequence (Q8N568 whole entry)": "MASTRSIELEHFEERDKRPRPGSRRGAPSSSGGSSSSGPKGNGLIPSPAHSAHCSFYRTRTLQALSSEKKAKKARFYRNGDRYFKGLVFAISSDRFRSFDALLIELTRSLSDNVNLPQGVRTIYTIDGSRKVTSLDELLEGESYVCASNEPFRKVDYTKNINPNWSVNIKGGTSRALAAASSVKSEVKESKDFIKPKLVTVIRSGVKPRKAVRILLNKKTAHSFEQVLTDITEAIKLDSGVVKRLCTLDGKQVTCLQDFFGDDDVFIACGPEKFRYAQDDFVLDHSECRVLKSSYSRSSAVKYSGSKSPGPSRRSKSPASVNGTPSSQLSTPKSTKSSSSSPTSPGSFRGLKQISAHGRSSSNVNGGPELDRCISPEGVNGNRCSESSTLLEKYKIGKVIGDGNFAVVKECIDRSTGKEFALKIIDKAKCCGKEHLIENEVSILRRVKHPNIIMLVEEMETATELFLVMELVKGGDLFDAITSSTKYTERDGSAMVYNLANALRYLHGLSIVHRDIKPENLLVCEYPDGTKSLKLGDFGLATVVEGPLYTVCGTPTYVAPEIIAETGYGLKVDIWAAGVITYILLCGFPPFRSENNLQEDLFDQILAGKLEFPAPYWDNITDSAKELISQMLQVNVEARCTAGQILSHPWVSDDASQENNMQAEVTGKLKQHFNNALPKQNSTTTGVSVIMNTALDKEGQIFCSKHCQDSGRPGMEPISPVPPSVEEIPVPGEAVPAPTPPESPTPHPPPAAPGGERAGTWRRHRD", "settings": "DCAMKL2(h), read-out: Inhibition rate", "outline": "as §1"}, "[7]": {"target": "T7, 380 human recombinant protein kinases (Homo sapiens, UniProt Q9P289)", "T7 construct": "purchased Eurofins (Celle Lévescault)", "T7 sequence (Q9P289 whole entry)": "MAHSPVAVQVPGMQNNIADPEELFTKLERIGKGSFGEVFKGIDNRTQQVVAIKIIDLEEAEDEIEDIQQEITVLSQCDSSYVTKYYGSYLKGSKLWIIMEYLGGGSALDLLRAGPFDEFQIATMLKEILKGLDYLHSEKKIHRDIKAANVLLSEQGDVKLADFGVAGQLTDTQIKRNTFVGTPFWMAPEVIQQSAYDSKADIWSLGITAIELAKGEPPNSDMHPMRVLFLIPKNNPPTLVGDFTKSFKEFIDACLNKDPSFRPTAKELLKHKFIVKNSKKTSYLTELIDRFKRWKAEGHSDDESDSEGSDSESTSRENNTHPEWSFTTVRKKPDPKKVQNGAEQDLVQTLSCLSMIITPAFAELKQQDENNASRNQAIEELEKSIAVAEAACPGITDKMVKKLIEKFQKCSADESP", "settings": "MST4(h), read-out: Inhibition rate", "outline": "as §1"}, "[8]": {"target": "T8, 380 human recombinant protein kinases (Homo sapiens, UniProt P00519)", "T8 construct": "purchased Eurofins (Celle Lévescault)", "T8 sequence (P00519 whole entry)": "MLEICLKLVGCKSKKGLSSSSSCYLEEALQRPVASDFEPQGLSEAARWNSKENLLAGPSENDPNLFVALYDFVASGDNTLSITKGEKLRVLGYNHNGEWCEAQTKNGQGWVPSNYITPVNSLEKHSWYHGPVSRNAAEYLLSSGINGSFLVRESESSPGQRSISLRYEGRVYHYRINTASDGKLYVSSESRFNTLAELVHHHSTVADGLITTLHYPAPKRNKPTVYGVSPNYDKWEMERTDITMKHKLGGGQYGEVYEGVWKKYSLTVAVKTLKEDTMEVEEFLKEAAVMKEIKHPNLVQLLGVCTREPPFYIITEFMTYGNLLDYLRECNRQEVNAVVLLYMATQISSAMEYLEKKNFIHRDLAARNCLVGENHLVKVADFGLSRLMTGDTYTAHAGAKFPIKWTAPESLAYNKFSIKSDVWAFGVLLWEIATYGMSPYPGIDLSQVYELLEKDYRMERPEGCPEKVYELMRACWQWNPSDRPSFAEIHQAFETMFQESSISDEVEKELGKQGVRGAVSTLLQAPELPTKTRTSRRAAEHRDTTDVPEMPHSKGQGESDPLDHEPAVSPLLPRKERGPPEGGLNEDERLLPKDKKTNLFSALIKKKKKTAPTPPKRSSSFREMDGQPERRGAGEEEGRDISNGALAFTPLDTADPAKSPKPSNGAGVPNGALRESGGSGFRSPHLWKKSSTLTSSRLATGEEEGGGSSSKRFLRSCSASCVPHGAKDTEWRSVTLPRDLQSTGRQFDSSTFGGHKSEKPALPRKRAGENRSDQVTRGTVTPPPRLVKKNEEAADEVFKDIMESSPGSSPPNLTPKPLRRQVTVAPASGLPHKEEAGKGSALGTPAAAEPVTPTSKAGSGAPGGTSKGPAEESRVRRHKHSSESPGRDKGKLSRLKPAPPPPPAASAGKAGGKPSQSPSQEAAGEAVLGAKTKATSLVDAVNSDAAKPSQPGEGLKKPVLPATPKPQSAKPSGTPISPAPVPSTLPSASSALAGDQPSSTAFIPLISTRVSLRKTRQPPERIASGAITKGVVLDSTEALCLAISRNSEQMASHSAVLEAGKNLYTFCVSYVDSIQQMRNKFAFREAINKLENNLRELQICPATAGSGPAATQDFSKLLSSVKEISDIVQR", "settings": "Abl(h), read-out: Inhibition rate", "outline": "as §1"}, "[9]": {"target": "T9, 380 human recombinant protein kinases (Homo sapiens, UniProt O94804)", "T9 construct": "purchased Eurofins (Celle Lévescault)", "settings": "LOK(h), read-out: Inhibition rate", "outline": "as §1"}, "[10]": {"target": "T10, 380 human recombinant protein kinases (Homo sapiens, UniProt Q9BZL6)", "T10 construct": "purchased Eurofins (Celle Lévescault)", "T10 sequence (Q9BZL6 1-878)": "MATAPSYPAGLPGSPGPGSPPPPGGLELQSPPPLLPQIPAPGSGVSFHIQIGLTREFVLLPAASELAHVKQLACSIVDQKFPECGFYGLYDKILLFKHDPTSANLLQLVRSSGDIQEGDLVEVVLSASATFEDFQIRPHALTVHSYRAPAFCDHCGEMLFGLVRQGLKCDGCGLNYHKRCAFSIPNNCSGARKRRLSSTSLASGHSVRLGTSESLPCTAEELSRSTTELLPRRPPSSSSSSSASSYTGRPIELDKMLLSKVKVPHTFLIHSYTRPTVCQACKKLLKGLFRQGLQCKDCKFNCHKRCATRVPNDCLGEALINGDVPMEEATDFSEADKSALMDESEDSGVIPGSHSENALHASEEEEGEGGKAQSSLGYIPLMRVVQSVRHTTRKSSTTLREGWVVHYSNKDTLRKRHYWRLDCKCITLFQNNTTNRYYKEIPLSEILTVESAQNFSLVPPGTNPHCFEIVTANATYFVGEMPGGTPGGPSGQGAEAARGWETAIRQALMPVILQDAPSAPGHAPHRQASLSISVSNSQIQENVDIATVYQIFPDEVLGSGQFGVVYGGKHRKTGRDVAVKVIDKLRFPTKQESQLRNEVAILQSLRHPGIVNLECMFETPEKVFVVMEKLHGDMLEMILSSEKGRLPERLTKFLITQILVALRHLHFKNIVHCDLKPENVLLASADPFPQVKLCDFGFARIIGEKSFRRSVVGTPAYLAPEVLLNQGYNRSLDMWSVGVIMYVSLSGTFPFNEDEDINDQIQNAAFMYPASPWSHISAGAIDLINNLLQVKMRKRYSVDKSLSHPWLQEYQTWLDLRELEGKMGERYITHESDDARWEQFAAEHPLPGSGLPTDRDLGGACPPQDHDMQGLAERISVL", "settings": "PKD2(h), read-out: Inhibition rate", "outline": "as §1"}, "[11]": {"settings": "Src(1-530)(h), read-out: Inhibition rate (%)"}, "[12]": {"settings": "cSRC(h), read-out: Inhibition rate"}}, "note": "Read-outs that look alike come from different tables or passages of the source."}
{"smiles": "C=CC(=O)Nc1cc(-c2cc(-c3cc4c([nH]3)CCNC4=O)ccn2)ccc1OC(F)(F)F", "note": "[compound 11]", "values": [{"measurement": "inhibition at 0.01 µM", "setting": "[1]; 10 nM", "value": -11, "unit": "%"}, {"measurement": "inhibition at 0.1 µM", "setting": "[1]; 100 nM", "value": -18, "unit": "%"}, {"measurement": "inhibition at 1 µM", "setting": "[1]; 1000 nM", "value": -11, "unit": "%"}, {"measurement": "inhibition at 0.01 µM", "setting": "[2]; [11]", "value": 6, "unit": "%"}, {"measurement": "inhibition at 0.1 µM", "setting": "[2]; [11]", "value": 5, "unit": "%"}, {"measurement": "inhibition at 1 µM", "setting": "[2]; [11]", "value": -1, "unit": "%"}, {"measurement": "inhibition at 0.01 µM", "setting": "[2]; [12]", "value": 1, "unit": "%"}, {"measurement": "inhibition at 0.1 µM", "setting": "[2]; [12]", "value": 8, "unit": "%"}, {"measurement": "inhibition at 1 µM", "setting": "[2]; [12]", "value": 10, "unit": "%"}, {"measurement": "inhibition at 0.01 µM", "setting": "[3]; 10 nM", "value": -3, "unit": "%"}, {"measurement": "inhibition at 0.1 µM", "setting": "[3]; 100 nM", "value": 0, "unit": "%"}, {"measurement": "inhibition at 1 µM", "setting": "[3]; 1000 nM", "value": 11, "unit": "%"}, {"measurement": "inhibition at 0.01 µM", "setting": "[4]; 10 nM", "value": -9, "unit": "%"}, {"measurement": "inhibition at 0.1 µM", "setting": "[4]; 100 nM", "value": -8, "unit": "%"}, {"measurement": "inhibition at 1 µM", "setting": "[4]; 1000 nM", "value": -1, "unit": "%"}, {"measurement": "inhibition at 0.01 µM", "setting": "[5]; 10 nM", "value": 4, "unit": "%"}, {"measurement": "inhibition at 0.1 µM", "setting": "[5]; 100 nM", "value": 19, "unit": "%"}, {"measurement": "inhibition at 1 µM", "setting": "[5]; 1000 nM", "value": 27, "unit": "%"}, {"measurement": "inhibition at 0.01 µM", "setting": "[6]; 10 nM", "value": 4, "unit": "%"}, {"measurement": "inhibition at 0.1 µM", "setting": "[6]; 100 nM", "value": 4, "unit": "%"}, {"measurement": "inhibition at 1 µM", "setting": "[6]; 1000 nM", "value": 4, "unit": "%"}, {"measurement": "inhibition at 0.01 µM", "setting": "[7]; 10 nM", "value": -5, "unit": "%"}, {"measurement": "inhibition at 0.1 µM", "setting": "[7]; 100 nM", "value": -8, "unit": "%"}, {"measurement": "inhibition at 1 µM", "setting": "[7]; 1000 nM", "value": 2, "unit": "%"}, {"measurement": "inhibition at 0.01 µM", "setting": "[8]; 10 nM", "value": -9, "unit": "%"}, {"measurement": "inhibition at 0.1 µM", "setting": "[8]; 100 nM", "value": -5, "unit": "%"}, {"measurement": "inhibition at 1 µM", "setting": "[8]; 1000 nM", "value": 9, "unit": "%"}, {"measurement": "inhibition at 0.01 µM", "setting": "[9]; 10 nM", "value": -2, "unit": "%"}, {"measurement": "inhibition at 0.1 µM", "setting": "[9]; 100 nM", "value": 6, "unit": "%"}, {"measurement": "inhibition at 1 µM", "setting": "[9]; 1000 nM", "value": 54, "unit": "%"}, {"measurement": "inhibition at 0.01 µM", "setting": "[10]; 10 nM", "value": 0, "unit": "%"}, {"measurement": "inhibition at 0.1 µM", "setting": "[10]; 100 nM", "value": 8, "unit": "%"}, {"measurement": "inhibition at 1 µM", "setting": "[10]; 1000 nM", "value": 47, "unit": "%"}]}
